According to ChEMBL document CHEMBL5528030, “Discovery of Natural Ah Receptor Antagonists from Salvia miltiorrhiza Bunge and Synthesis of Analogs for Tumor Immunotherapy” (J Med Chem, 2024):

How the values were obtained:
[1] = Toxicity against C57BL/6 mouse xenografted with mouse B16-F10 cells assessed as change in body weight at 0.3 to 1 mg/kg, po administered daily and measured for 15 days; format: organism-based; conditions: in vivo, 360 h, dose 0.3-1 mg/kg, time 15 day
[2] = biological target: T1, Aryl hydrocarbon receptor (Mus musculus, UniProt P30561); assay: Antagonist activity at AhR receptor in kynurenine-stimulated mouse B16-F10 cells assessed as decrease in IL-6 gene expression at 10 to 30 uM measured after 24 hrs by RT-qPCR analysis; format: cell-based; conditions: b16-f10, 24 h, dose 10-30 µM
T1 sequence (P30561 whole entry): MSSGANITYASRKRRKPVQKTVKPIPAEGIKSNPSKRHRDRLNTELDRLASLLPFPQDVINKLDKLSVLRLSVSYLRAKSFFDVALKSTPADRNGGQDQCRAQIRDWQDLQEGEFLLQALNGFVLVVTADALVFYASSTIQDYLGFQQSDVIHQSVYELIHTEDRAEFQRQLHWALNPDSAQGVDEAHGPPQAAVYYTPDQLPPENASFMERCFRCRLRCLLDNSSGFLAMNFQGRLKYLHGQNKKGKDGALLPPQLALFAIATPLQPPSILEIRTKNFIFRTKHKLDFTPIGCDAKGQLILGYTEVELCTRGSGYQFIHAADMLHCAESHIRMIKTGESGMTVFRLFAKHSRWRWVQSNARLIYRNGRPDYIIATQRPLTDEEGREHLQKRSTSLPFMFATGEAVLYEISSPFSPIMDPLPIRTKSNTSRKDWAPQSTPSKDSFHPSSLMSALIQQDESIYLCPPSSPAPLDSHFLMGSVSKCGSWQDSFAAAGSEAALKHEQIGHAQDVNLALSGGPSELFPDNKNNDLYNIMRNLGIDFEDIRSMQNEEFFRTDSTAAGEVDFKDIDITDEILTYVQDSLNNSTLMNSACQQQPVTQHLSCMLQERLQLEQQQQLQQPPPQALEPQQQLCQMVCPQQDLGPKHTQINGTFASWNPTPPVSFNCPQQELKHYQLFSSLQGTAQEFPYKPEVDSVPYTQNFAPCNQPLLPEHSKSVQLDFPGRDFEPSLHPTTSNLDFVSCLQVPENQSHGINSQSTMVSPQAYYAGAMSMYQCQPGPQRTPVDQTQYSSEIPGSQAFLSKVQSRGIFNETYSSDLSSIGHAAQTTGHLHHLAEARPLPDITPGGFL

[3] = biological target: T1, Aryl hydrocarbon receptor; assay: Antagonist activity at AhR receptor in mouse B16-F10 cells assessed as inhibition of kynurenine-induced receptor nuclear translocation by measuring increase in receptor level in cytoplasm at 10 to 30 uM measured after 72 hrs by Hoechst staining based immunofluorescence analysis; format: cell-based; conditions: b16-f10, 72 h, dose 10-30 µM
[4] = biological target: T1, Aryl hydrocarbon receptor; assay: Antagonist activity at AhR receptor in mouse B16-F10 cells assessed as inhibition of kynurenine-induced receptor nuclear translocation by measuring increase in receptor level in cytoplasm at 30 uM measured after 24 hrs by western blot analysis; format: subcellular; conditions: b16-f10, 24 h
[5] = biological target: T1, Aryl hydrocarbon receptor; assay: Antagonist activity at AhR receptor in mouse B16-F10 cells assessed as inhibition of kynurenine-induced receptor nuclear translocation by measuring decrease in receptor level in nucleus at 30 uM measured after 24 hrs by western blot analysis; format: subcellular; conditions: b16-f10, 24 h
[6] = biological target: T1, Aryl hydrocarbon receptor; assay: Antagonist activity at AhR receptor in kynurenine-stimulated mouse B16-F10 cells assessed as decrease in IDO-1 gene expression at 10 to 30 uM measured after 48 hrs by RT-qPCR analysis; format: cell-based; conditions: b16-f10, 48 h, dose 10-30 µM
[7] = biological target: T1, Aryl hydrocarbon receptor; assay: Antagonist activity at AhR receptor in mouse B16-F10 cells assessed as inhibition of kynurenine-induced receptor nuclear translocation by measuring decrease in receptor level in nucleus at 10 to 30 uM measured after 72 hrs by Hoechst staining based immunofluorescence analysis; format: cell-based; conditions: b16-f10, 72 h, dose 10-30 µM
[8] = biological target: T1, Aryl hydrocarbon receptor; assay: Antagonist activity at AhR receptor in kynurenine-stimulated mouse B16-F10 cells assessed as decrease in AhRR gene expression at 10 to 30 uM measured after 24 hrs by RT-qPCR analysis; format: cell-based; conditions: b16-f10, 24 h, dose 10-30 µM
B16-F10 = assay: animal or person; conditions: Mus musculus, B16-F10, 360 h, read-out: TGI
Description: Antitumor activity against mouse B16-F10 cells xenografted in C57BL/6 mouse assessed as inhibition of tumor growth at 100 mg/kg, ip administered once a week and measured for 15 days

Row | Structure (SMILES) | Activity [1] | inhibition (INH) [2] | inhibition (INH) [3] | inhibition (INH) [4] | inhibition (INH) [5] | inhibition (INH) [6] | inhibition (INH) [7] | inhibition (INH) [8] | inhibition in vivo at 100 mg/kg (B16-F10) [%]
1 | CC(=O)OC1Oc2c(C(C)C)cc3ccc4c(C)c(C)ccc4c3c2OC1c1ccccc1 (racemic) | Non-Toxic | Active | Active | Active | Active | Active | Active | Active | –
2 | O=P1(N(CCCl)CCCl)NCCCO1 (centres undefined) [CYCLOPHOSPHAMIDE ANHYDROUS] | – | – | – | – | – | – | – | – | 92.2
